Measured values as given in PMC5673977, “Transport Deficiency Is the Molecular Basis of Candida albicans Resistance to Antifungal Oligopeptides” (Frontiers in Microbiology, 2017).
Converted amounts (≈) assume the structure as drawn. Where a SMILES comes first, the peptide text is derived from it. [ ]: non-standard residue; d: D form. The star is where a group is joined. Fumaryl(OMe) = COC(=O)/C=C/C(=O)*; Dap = NC[C@H](N)C(=O)O

Tests used:
Format in all cases: cell-based, Candida albicans
C. albicans ptr2Δ ptr22Δ = assay: Initial peptide uptake rate; settings: 50 mM potassium phosphate buffer (pH 5.0 or 6.5) + 1% glucose, 30°C, 100 μM peptide, TNBS A420, slope 0- to 10-min
Description: (§1) Yeast cells grown exponentially in the YNB-SG medium were harvested by centrifugation (3000 ×g, 5 min), washed with 50 mM potassium phosphate buffer (pH 5.0 or 6.5), and suspended in the same buffer containing 1% glucose, to a final cell density corresponding to A660 ≅ 1.0. The cell suspension was incubated at 30°C. After 10 min, an oligopeptide solution was added, to give a final concentration of 100 μM. At that moment and at 5 min intervals thereafter, 2 mL samples of the cell suspension were withdrawn, immediately filtered through the Whatman GF/A filters and the filtrates were used to determine the residual peptide concentration. Then, the 1 mL portions of the filtrates were taken and combined with 1.25 mL aliquots of a solution containing 4% Na2B4O7 × 10 H2O and 0.8 mg mL^-1 of 2,4,6-trinitrobenzenesulfonate. The reaction was carried out at 37°C for 30 min. The A420 values were measured and the peptide concentration was read from the appropriate standard curve. Data were plotted as nanomoles of an oligopeptide, taken up by 1 mg (dry weight) of cells versus time. The initial uptake velocities were determined from the slopes of the linear part of the curves, in the 0- to 10-min region.

C. albicans SC5314 = assay: Initial peptide uptake rate; settings: SC 5314; cells grown in YNB-SG; 50 mM potassium phosphate buffer (pH 5.0 or 6.5) + 1% glucose, 30°C, 100 μM peptide, residual peptide by TNBS A420, slope 0- to 10-min
Description: as §1

C. albicans opt4Δ = assay: Initial peptide uptake rate; settings: 50 mM potassium phosphate buffer (pH 5.0 or 6.5) + 1% glucose, 30°C, 100 μM peptide, TNBS A420, slope 0- to 10-min
Description: as §1

C. albicans opt2Δ opt3Δ = assay: Initial peptide uptake rate; settings: 50 mM potassium phosphate buffer (pH 5.0 or 6.5) + 1% glucose, 30°C, 100 μM peptide, TNBS A420, slope 0- to 10-min
Description: as §1

[1] = system: C. albicans opt1–opt5Δ ptr2Δ ptr22Δ; assay: Initial peptide uptake rate; settings: 50 mM potassium phosphate buffer (pH 5.0 or 6.5) + 1% glucose, 30°C, 100 μM peptide, TNBS A420, slope 0- to 10-min
Description: as §1

C. albicans opt1Δ = assay: Initial peptide uptake rate; settings: 50 mM potassium phosphate buffer (pH 5.0 or 6.5) + 1% glucose, 30°C, 100 μM peptide, TNBS A420, slope 0- to 10-min
Description: as §1

C. albicans opt5Δ = assay: Initial peptide uptake rate; settings: 50 mM potassium phosphate buffer (pH 5.0 or 6.5) + 1% glucose, 30°C, 100 μM peptide, TNBS A420, slope 0- to 10-min
Description: as §1

C. albicans SC 5314 = assay: Disc diffusion method; settings: YNB-AS agar, 10 μg of peptide on a disc (10 μL of 1 mg mL^-1), 48 h, 30°C
Description: (§2) Candida albicans cells, apparently resistant to FMDP-peptides, were isolated from the individual colonies formed on the surface of YNB-SG agar medium containing FMDP-peptide, 10 μg mL^-1 or within the growth inhibitory zones around the paper discs saturated with 10 μL of the FMDP-peptide solution, 1 mg mL^-1. In both versions, the agar surface was inoculated with 10^5 cells from the overnight culture in YPD medium, washed three times with sterile water, suspended in 0.2 mL of sterile water and the cell suspension was spread on the whole surface with a sterile glass rod. Plates were incubated for 48 h at 30°C and isolated colonies were picked with a platinum loop.
(§3) Growth inhibitory activity of FMDP-oligopeptides against C. albicans SC 5314 was also determined by the disc diffusion method. […] Cells grown in these colonies were collected, re-grown in YNB-AS and tested for sensitivity to FMDP-oligopeptides.
FIGURE 3 Disc diffusion activity determination of FMDP-oligopeptides. YNB-AS agar medium, 10 μg of each peptide applied on a disc. (A) F2; (B) F3; (C) F6; (D) F7; (E) F11.

C. albicans isolate NF2 = settings: YNB-SG medium
Source text: (§4) The in vitro growth inhibitory activity of antifungals was quantified by determination of minimal inhibitory concentration (MIC) values by the serial twofold dilution method, using the 96-well microtiter plates in three media: buffered RPMI-1640, YNB-AS, and YNB-SG. Conditions of the RPMI-1640-based assay were the same as outlined in the CLSI recommendations ([Clinical Laboratory Standards Institute, 2008]), except for the end-point readout that was done by spectrophotometric determination of cell density at 531 nm. Turbidity in individual wells was measured with a microplate reader (Victor^3; Perkin Elmer). MIC was defined as the lowest drug concentration that gave at least an 80% decrease in turbidity, relative to that of the drug-free growth control.
(§5) The 96-well microtiter plates were also used for determination of in vitro growth inhibitory activity in YPD and YNB-based media. Individual wells were inoculated with 5 × 10^3 cfu mL^-1 of C. albicans cells from the overnight culture in YPD medium. The inoculated plates were incubated 37°C for 24 h and then turbidity was measured with a microplate reader at 531 nm, as described above for the RPMI-1640-based assay.
as §2, §3

C. albicans isolate NF3 = settings: YNB-SG medium
Source text: as §4, §5, §2, §3

C. albicans isolate LNF3 = settings: YNB-SG medium
Source text: as §4, §5, §2, §3

C. albicans isolate LNF1 = settings: YNB-SG medium
Source text: as §4, §5, §2, §3

C. albicans isolate LNF2 = settings: YNB-SG medium
Source text: as §4, §5, §2, §3

C. albicans isolate NF1 = settings: YNB-SG medium
Source text: as §4, §5, §2, §3

Row | Structure (SMILES) | Uptake rate ± SD (C. albicans ptr2Δ ptr22Δ) | Uptake rate ± SD (C. albicans SC5314) | Uptake rate ± SD (C. albicans opt4Δ) | Uptake rate ± SD (C. albicans opt2Δ opt3Δ) | Uptake rate ± SD [1] | Uptake rate ± SD (C. albicans opt1Δ) | Uptake rate ± SD (C. albicans opt5Δ) | Appearance of growth inhibitory zone (C. albicans SC 5314) | MIC (C. albicans isolate NF2) | MIC (C. albicans isolate NF3) | MIC (C. albicans isolate LNF3) | MIC (C. albicans isolate LNF1) | MIC (C. albicans isolate LNF2) | MIC (C. albicans isolate NF1)
1 | COC(=O)/C=C/C(=O)NC[C@H](N)C(=O)N[C@@H](CCCNC(=N)N)C(=O)N[C@@H](CCCCN)C(=O)N[C@@H](CCCCN)C(=O)N[C@@H](Cc1c[nH]c2ccccc12)C(=O)N[C@@H](Cc1ccccc1)C(=O)N[C@@H](Cc1c[nH]c2ccccc12)C(=O)O [Peptide F7, FMDP-Arg-Lys-Lys-Trp-Phe-Trp] (H-[Dap](Fumaryl(OMe))RKKWFW-OH; N-terminus and C-terminus assumed) | 2.22 ± 0.16 nmol min^-1 (mg dry weight)^-1 | 2.40 ± 0.16 nmol min^-1 (mg dry weight)^-1 | 1.85 ± 0.12 nmol min^-1 (mg dry weight)^-1 | 0.46 ± 0.08 nmol min^-1 (mg dry weight)^-1 | 0.23 ± 0.02 nmol min^-1 (mg dry weight)^-1 | 1.70 ± 0.12 nmol min^-1 (mg dry weight)^-1 | 1.44 ± 0.10 nmol min^-1 (mg dry weight)^-1 | clear | 16 µg/mL (≈ 13.9 µM) | 16 µg/mL (≈ 13.9 µM) | 16 µg/mL (≈ 13.9 µM) | 16 µg/mL (≈ 13.9 µM) | 16 µg/mL (≈ 13.9 µM) | 16 µg/mL (≈ 13.9 µM)
2 | COC(=O)/C=C/C(=O)NC[C@H](NC(=O)[C@H](CCSC)NC(=O)[C@@H](NC(=O)[C@@H]1CCCN1C(=O)[C@H](CC(C)C)NC(=O)[C@@H](N)CCCCN)C(C)C)C(=O)O [Peptide F6, Lys-Leu-Pro-Val-Met-FMDP] (H-KLPVM[Dap](Fumaryl(OMe))-OH; N-terminus and C-terminus assumed) | 3.00 ± 0.25 nmol min^-1 (mg dry weight)^-1 | 3.12 ± 0.20 nmol min^-1 (mg dry weight)^-1 | 2.99 ± 0.11 nmol min^-1 (mg dry weight)^-1 | 0.56 ± 0.09 nmol min^-1 (mg dry weight)^-1 | 0.18 ± 0.03 nmol min^-1 (mg dry weight)^-1 | 2.08 ± 0.15 nmol min^-1 (mg dry weight)^-1 | 2.03 ± 0.15 nmol min^-1 (mg dry weight)^-1 | clear | 4 µg/mL (≈ 5.1 µM) | 4 µg/mL (≈ 5.1 µM) | 4 µg/mL (≈ 5.1 µM) | 4 µg/mL (≈ 5.1 µM) | 8 µg/mL (≈ 10.2 µM) | 4 µg/mL (≈ 5.1 µM)
3 | COC(=O)/C=C/C(=O)NC[C@H](N)C(=O)N[C@@H](CCCCN)C(=O)N[C@@H](CCCCN)C(=O)N[C@H](C(=O)N[C@H](C(=O)N[C@@H](Cc1ccccc1)C(=O)N[C@@H](Cc1c[nH]c2ccccc12)C(=O)N[C@H](C(=O)N[C@@H](CCCCN)C(=O)N[C@@H](Cc1ccccc1)C(=O)N[C@@H](CCCCN)C(=O)O)C(C)C)C(C)C)C(C)C [Peptide F11, FMDP-Lys-Lys-Val-Val-Phe-Trp-Val-Lys-Phe-Lys] (H-[Dap](Fumaryl(OMe))KKVVFWVKFK-OH; N-terminus assumed) | 2.28 ± 0.15 nmol min^-1 (mg dry weight)^-1 | 2.25 ± 0.15 nmol min^-1 (mg dry weight)^-1 | 1.77 ± 0.18 nmol min^-1 (mg dry weight)^-1 | 0.22 ± 0.03 nmol min^-1 (mg dry weight)^-1 | 0.18 ± 0.02 nmol min^-1 (mg dry weight)^-1 | 1.64 ± 0.11 nmol min^-1 (mg dry weight)^-1 | 1.92 ± 0.18 nmol min^-1 (mg dry weight)^-1 | clear | 32 µg/mL (≈ 21.2 µM) | 16 µg/mL (≈ 10.6 µM) | 16 µg/mL (≈ 10.6 µM) | 16 µg/mL (≈ 10.6 µM) | 32 µg/mL (≈ 21.2 µM) | 16 µg/mL (≈ 10.6 µM)
